Data as given in US5376679A, “Bicyclic or tricyclic biocidal compounds” (Shell Internationale Research Maatschappij B.V., priority 1988, dated 1994).
≈ marks a conversion by molar mass, not a printed value.

Key:
Escherichia coli = assay: Minimum inhibitory concentration, Escherichia coli (Ec); type: cell-based, Escherichia coli (NCIB 9517); details: 30° C., 24 and 72 hours
Experimental: (§1) In respect of S. aureus, B. subtilis and E. coli, the microorganisms were cultured in 50 ml aliquots of a tryptone soya broth in 250 ml conical flasks at 30° C. on a rotary shaker at 200 rpm for 24 hours. Tryptone soya broth was prepared by adding 17 g pancreatic digest of casein, 3 g […] digest of soyabean meal, 5 g of sodium chloride, 2.5 g of dipotassium hydrogen phosphate and 2.5 g of dextrose to 1 liter of distilled water, mixing and sterilising by autoclaving at 121° C. for 15 minutes. 1 ml aliquots of the resulting cultures were mixed with 99 ml of fresh tryptone soya broth and used as inocula for tests. […] Test procedures were as follows: (ii) Dilution Series for Other Test Bacteria, Yeast and Filamentous Fungi Dilution series from the stock solution of each compound were prepared in sterile distilled water. These contained 50, 100, 500 and 1000 ppm compound. To duplicate wells of a compartmentalised square petri dish 0.3 ml of each test compound concentration was added together with 2.7 ml of one of the microbial inocula described above. […] After incubation, in the dark, at 30° C. the wells were examined for the presence or absence of growth. Bacterial and yeast cultures were examined after 24 hours and 72 hours incubation and the fungi cultures after 3, 7 and 10 days. By means of the above tests minimum inhibitory concentrations were determined for the various test compounds.

Staphylococcus aureus = assay: Minimum inhibitory concentration, Staphylococcus aureus (Sa); type: cell-based, Staphylococcus aureus (NCIB 6571); details: 30° C., 24 and 72 hours
Experimental: as §1

Chaetomium globosum = assay: Minimum inhibitory concentration, Chaetomium globosum (Chg); type: cell-based
Experimental: (§2) Inocula of the fungi Aspergillus niger, Cladosporium resinae and Chaetomium globosum were prepared containing 5×10^5 conidia/ml in a potato dextrose broth. The potato dextrose broth was prepared by suspending 4 g potato extract and 20 g dextrose in 1 liter of distilled water, warming to achieve solution, separating into aliquots and sterilising by autoclaving at 121° C. for 15 minutes.
(§3) Test procedures were as follows:
(§4) (ii) Dilution Series for Other Test Bacteria, Yeast and Filamentous Fungi
(§5) Dilution series from the stock solution of each compound were prepared in sterile distilled water. These contained 50, 100, 500 and 1000 ppm compound. To duplicate wells of a compartmentalised square petri dish 0.3 ml of each test compound concentration was added together with 2.7 ml of one of the microbial inocula described above. This gave final concentrations of the test compound of 5, 10, 50 and 100 ppm.
(§6) After incubation, in the dark, at 30° C. the wells were examined for the presence or absence of growth. Bacterial and yeast cultures were examined after 24 hours and 72 hours incubation and the fungi cultures after 3, 7 and 10 days.
(§7) By means of the above tests minimum inhibitory concentrations were determined for the various test compounds.

[1] = tested on: Pseudocercosporella herpotrichoides; assay: In vitro activity against wheat eyespot (Ph); type: cell-based; parameters: Ph: activity against wheat eyespot: scale not given here; details: in vitro, 100 ppm in agar, 11 days; activity grade 1 or 2, not defined
Procedure, shortened: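 Compound was dispersed from acetone into half-strength potato dextrose agar at 100 ppm final. Two 5 mm mycelial plugs were placed on each plate, which was incubated 11 days at 20–22 °C in darkness. Diametric growth minus plug width was compared with acetone-only agar.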

Saccharomyces cerevisiae = assay: Minimum inhibitory concentration, yeast (Sc); type: cell-based, Saccharomyces cerevisiae (ATCC 9763); details: 30° C., 24 and 72 hours
Experimental: Inocula of S. cerevisiae were prepared as for S. aureus, B. subtilis and E. coli, but using yeast malt broth in place of the typtone soya broth. The yeast malt broth was prepared by suspending 3 g yeast extract, 3 g malt extract, 5 g peptone and 10 g dextrose in 1 liter of distilled water, warming to achieve solution and sterilising by autoclaving at 121° C. for 15 minutes.
as §3, §4, §5, §6, §7

Aspergillus niger = assay: Minimum inhibitory concentration, Aspergillus niger (An); type: cell-based, Aspergillus niger (CMI 17454); details: 30° C., 3, 7 and 10 days
Experimental: as §2, §3, §4, §5, §6, §7

Fusarium culmorum = assay: Activity against seedling wheat blight, soil drench (Fs); type: in vivo; parameters: scale not given here; details: 10 kg/ha, 21 days, activity grade 1 or 2, not defined
Procedure, shortened: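 Wheat seeds (var Waggoner) soaked 6 h at 22° C in 7×10^5 spores/ml, sown in sand; 1 day later soil drench at 10 kg/ha (0.36 g/l in 12% v/v acetone/water). Glasshouse at 25° C; at 21 days, stem-base and upper-root lesions scored visually against control seedlings.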

Cladosporium resinae = assay: Minimum inhibitory concentration, Cladosporium resinae (Cr); type: cell-based; details: Amorphotheca resinae, 30° C., 3, 7 and 10 days
Experimental: as §2, §3, §4, §5, §6, §7

Bacillus subtilis = assay: Minimum inhibitory concentration, Bacillus subtilis (Bs); type: cell-based; details: 30° C., 24 and 72 hours
Experimental: as §1

Desulfovibrio sp. = assay: Minimum inhibitory concentration, sulphate-reducing bacteria (Dsp); type: cell-based; details: 30° C., 2, 5 and 10 days
Experimental: The sulphate reducing bacteria Desulfovibrio sp. were cultured in a modified Postgate's Medium B for 48 hours at 30° C. and used directly as an inoculum. The modified Postgate's Medium B consisted of 0.5 g dipotassium hydrogen phosphate, 1 g ammonium chloride, 1 g sodium sulphate, 5 g sodium lactate, 1 g yeast extract, 0.1 ml thioglycolic acid, 0.1 ml ascorbic acid, 0.5 g ferrous sulphate heptahydrate, 750 ml aged seawater and 250 ml distilled water, pH adjusted to 7.8, divided into aliquots and sterilised by autoclaving at 121° C. for 15 minutes. […] Test procedures were as follows: (i) Suphate-reducing Bacteria Test Dilution Series Duplicate aliquots (9.9 ml) of dilution series from the stock solutions of each compound were prepared in a modified Postgate's Medium B described above. These contained 100 ppm compound. These were then inoculated with 0.1 ml of inoculum. After incubation at 30° C., the presence or absence of growth--as indicated by a blackening of the medium due to ferrous sulphide production--was recorded at 2, 5 and 10 days. […] By means of the above tests minimum inhibitory concentrations were determined for the various test compounds.

| SMILES | MIC (Escherichia coli) | MIC (Staphylococcus aureus) | MIC (Chaetomium globosum; 30° C., 3, 7 and 10 days) | Ph: activity against wheat eyespot [1] | MIC (Saccharomyces cerevisiae) | MIC (Aspergillus niger) | Fs: activity against seedling wheat blight (Fusarium culmorum) | MIC (Cladosporium resinae) | MIC (Bacillus subtilis) | MIC (Desulfovibrio sp.) | MIC (Chaetomium globosum; *only tested at 100 ppm) |
| --- | --- | --- | --- | --- | --- | --- | --- | --- | --- | --- | --- |
| CC1(C)Cc2cc(Cl)cc([N+]([O-])=NC#N)c2O1 [Example 4] | > 100 µg/mL | 100 µg/mL (≈ 397 µM) | > 100 µg/mL | 2 | > 100 µg/mL | 100 µg/mL (≈ 397 µM) | 2 | 25 µg/mL (≈ 99.3 µM) | 50 µg/mL (≈ 199 µM) | > 100 µg/mL |  |
| Cc1cc2cc([N+]([O-])=NC#N)ccc2o1 [Example 23] | > 100 µg/mL | > 100 µg/mL |  | 1 | 25 µg/mL (≈ 124 µM) | 25 µg/mL (≈ 124 µM) | 2 | 25 µg/mL (≈ 124 µM) | 50 µg/mL (≈ 249 µM) | 100 µg/mL (≈ 497 µM) | < 100 µg/mL |
| N#CN=[N+]([O-])c1cc(Cl)cc2c1OC(CO)C2 (stereo not drawn) [Example 11] | 100 µg/mL (≈ 394 µM) | 100 µg/mL (≈ 394 µM) | 25 µg/mL (≈ 98.6 µM) | 2 | 100 µg/mL (≈ 394 µM) | 25 µg/mL (≈ 98.6 µM) | 2 | 50 µg/mL (≈ 197 µM) | 25 µg/mL (≈ 98.6 µM) | 100 µg/mL (≈ 394 µM) |  |
| N#CN=[N+]([O-])c1cc(Cl)cc2c1OCC=C2 [Example 26] | > 100 µg/mL | 100 µg/mL (≈ 424 µM) | 50 µg/mL (≈ 212 µM) | 1 | > 100 µg/mL | 25 to 50 µg/mL (≈ 106 to 212 µM) | 2 | 25 to 100 µg/mL (≈ 106 to 424 µM) | 50 µg/mL (≈ 212 µM) | 100 µg/mL (≈ 424 µM) |  |
| Cc1oc2c([N+]([O-])=NC#N)cccc2c1C [Example 18] | > 100 µg/mL | 5 µg/mL (≈ 23.2 µM) | 100 µg/mL (≈ 465 µM) | 1 | 100 µg/mL (≈ 465 µM) | 100 µg/mL (≈ 465 µM) | 2 | 100 µg/mL (≈ 465 µM) | > 100 µg/mL | > 100 µg/mL |  |
| CC1(C)C=Cc2cc(F)cc([N+]([O-])=NC#N)c2O1 [Example 29] | > 100 µg/mL | > 100 µg/mL | 5 to 100 µg/mL (≈ 20.2 to 404 µM) | 2 | 50 µg/mL (≈ 202 µM) | 25 to 100 µg/mL (≈ 101 to 404 µM) | 2 | 50 to 100 µg/mL (≈ 202 to 404 µM) | 100 µg/mL (≈ 404 µM) | > 100 µg/mL |  |
| N#CN=[N+]([O-])c1cc(Cl)cc2c1OC(CCl)C2 (stereo not drawn) [Example 10] | > 100 µg/mL | > 100 µg/mL |  | 2 | > 100 µg/mL | 25 µg/mL (≈ 91.9 µM) | 2 | 25 µg/mL (≈ 91.9 µM) | > 100 µg/mL | 100 µg/mL (≈ 368 µM) | < 100 µg/mL |
| CC1Oc2c(cc(Cl)cc2[N+]([O-])=NC#N)C1C (stereo not drawn) [Example 5] | > 100 µg/mL | > 100 µg/mL | 5 to 25 µg/mL (≈ 19.9 to 99.3 µM) | 2 | 50 µg/mL (≈ 199 µM) | 10 µg/mL (≈ 39.7 µM) | 2 | 25 µg/mL (≈ 99.3 µM) | 100 µg/mL (≈ 397 µM) | > 100 µg/mL |  |
| CC1Cc2cc(Cl)cc([N+]([O-])=NC#N)c2O1 (stereo not drawn) [Example 6] | > 100 µg/mL | 100 µg/mL (≈ 421 µM) | 25 µg/mL (≈ 105 µM) | 2 | 25 µg/mL (≈ 105 µM) | 25 µg/mL (≈ 105 µM) | 2 | 25 µg/mL (≈ 105 µM) | 100 µg/mL (≈ 421 µM) | 100 µg/mL (≈ 421 µM) |  |
| N#CN=[N+]([O-])c1ccc2oc(=O)ccc2c1 [Example 1] | > 100 µg/mL | > 100 µg/mL | 10 µg/mL (≈ 46.5 µM) | 2 | 5 to 25 µg/mL (≈ 23.2 to 116 µM) | 25 µg/mL (≈ 116 µM) | 2 | 25 to 50 µg/mL (≈ 116 to 232 µM) | 50 µg/mL (≈ 232 µM) | 25 µg/mL (≈ 116 µM) |  |
| Cc1cc2cccc([N+]([O-])=NC#N)c2o1 [Example 16] | > 100 µg/mL | > 100 µg/mL |  | 1 | 100 µg/mL (≈ 497 µM) | 50 µg/mL (≈ 249 µM) | 1 | > 100 µg/mL | > 100 µg/mL | 50 to 100 µg/mL (≈ 249 to 497 µM) |  |
| CC1Oc2c(cccc2[N+]([O-])=NC#N)C1C (stereo not drawn) [Example 9] | > 100 µg/mL | > 100 µg/mL | 50 µg/mL (≈ 230 µM) | 2 | 50 µg/mL (≈ 230 µM) | 25 µg/mL (≈ 115 µM) | 2 | 25 µg/mL (≈ 115 µM) | 50 µg/mL (≈ 230 µM) | 100 µg/mL (≈ 460 µM) |  |
| N#CN=[N+]([O-])c1cccc2c3c(oc12)CCCC3 [Example 17] | > 100 µg/mL | 100 µg/mL (≈ 415 µM) | < 100 µg/mL | 1 | 50 µg/mL (≈ 207 µM) | < 5 µg/mL | 2 | 25 µg/mL (≈ 104 µM) | > 100 µg/mL | > 100 µg/mL |  |
